System: 883617-216-R-J1-PDC tumor spheroids, viability
Assay: Anticancer human tumor 883617-216-R-J1-PDC patient-derived bladder carcinoma cell line growth inhibition [PI3K]
Settings: spheroids with HUVEC and MSC; for IC50: curve of first compound; for viability, T/C: stronger effect = lower value
Description: Combinatorial screen of targeted agents with the PI3K inhibitors inavolisib, alpelisib, duvelisib, and copanlisib in multi-cell type tumor spheroids
A high-throughput screen of multi-cell type tumor spheroids was designed to identify active combinations of targeted small molecules and PI3K pathway inhibitors. Complex spheroids include a stromal component modeled by human endothelial cells (HUVEC) and fibroblasts modeled by human mesenchymal stem cells (MSCs). The concentration ranges selected for each drug and investigational agent were based upon clinically achievable concentrations if the clinical Cmax of the agent was known.
Compounds. The drugs and investigational agents: inavolisib (NSC800729), alpelisib (NSC765974), duvelisib (NSC772469), copanlisib (NSC816437), ipatasertib (NSC767898), afuresertib (NSC778305), talazoparib (NSC767125), sapanisertib (NSC764658), selumetinib (NSC741078), tovorafenib (DAY101, NSC766906), vemurafenib (NSC761431), ravoxertinib (NSC781343), sotorasib (NSC818433), MRTX1133 (NSC 836407), abemaciclib (NSC 768073), palbociclib (NSC758247), venetoclax (NSC 766270), SY5609 (NSC837396), enzalutamide (NSC755605), and darolutamide (NSC825331), were obtained from the National Cancer Institute (NCI) Developmental Therapeutics Program Chemical Repository. The FDA-approved anticancer drug set is available from the NCI Developmental Therapeutics Program. […] The stock solutions were prepared in dimethyl sulfoxide (DMSO, Sigma-Aldrich, St. Louis, MO, cat. D2650) at 800-fold the tested concentration and stored at -70 degrees C prior to their use. All drugs and investigational agents were tested over a range starting from a high concentration at or near the clinical Cmax and decreasing in half-log increments. If the clinical Cmax for an agent had not been determined, the highest concentration tested was 10 microM.
Cell Culture. All cells were maintained in an incubator at 37 degrees C and 5% CO2 with 95% humidity. The PDC lines were cultured according to standard operating procedures established by the NCI PDMR (https://pdmr.cancer.gov/sops/default.htm). All PDCs were thawed and cultured in Matrigel-coated flasks prepared with a working solution of 1X Ham's F-12 nutrient mix, without supplementation (Invitrogen, Waltham, MA, cat. 11765054), 100 U/mL penicillin-streptomycin (Invitrogen, cat. 15140122), and 2.5% Matrigel (Corning Inc., Corning, NY, cat. 354248) for the first three passages. The 354836-022-R-J1-PDC, 475296-252-R-J1-PDC, and 997726-040-R-J2-PDC lines were cultured in 6A media, which includes advanced DMEM/F-12 (Thermo Fisher Scientific, cat. 12634028), 10 mM HEPES (Thermo Fisher Scientific, cat. 15630080), 1X GlutaMAX supplement (Thermo Fisher Scientific, cat. 35050061), 0.1 mg/mL primocin (InvivoGen, San Diego, CA, cat. ant-pm-2), 10% defined fetal bovine serum, heat inactivated (HyClone Laboratories Inc., Logan, UT, cat. SH30070.03HI), 50% L-WRN conditioned media (ATCC, cat. CRL-3276), 1.25 mM N-Acetyl-L-cysteine (Sigma-Aldrich, cat. A9165), 10 mM nicotinamide (Sigma-Aldrich, cat. N0636), 1X B-27 supplement (Thermo Fisher Scientific, cat. 17504044), 1X N-2 supplement (Thermo Fisher Scientific, cat. 17502048), and 10 microM Y-27632 dihydrochloride (Tocris Bioscience, Bristol, United Kingdom, cat. 1254). The 624824-186-R-J2-PDC line was cultured in 6C/Colon 1B media, which includes all 6A media components plus 50 ng/mL human EGF recombinant protein (Thermo Fisher Scientific, cat. PHG0311). […]
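Also: spheroids exposed to agents for 7 days before the viability read.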

**Q.** How did the IC50 (second compound 0.0316 µM) turn out when `Cn1ncnc1[C@H]1c2n[nH]c(=O)c3cc(F)cc(c23)N[C@@H]1c1ccc(F)cc1` + CC(Nc1ncnc2nc[nH]c12)c1cc2cccc(Cl)c2c(=O)n1-c1ccccc1 was run?
**A.** > 100 nM

**Q.** And the IC50 (second compound 0.1 µM)?
**A.** > 100 nM

**Q.** And the IC50 (second compound 0.316 µM)?
**A.** > 100 nM

**Q.** And the IC50 (second compound 1 µM)?
**A.** > 100 nM

**Q.** And the IC50 (second compound 3.16 µM)?
**A.** 72.3 nM

**Q.** And the IC50 (second compound 10 µM)?
**A.** 0.867 nM

**Q.** What about the viability, T/C (second compound 0.0316 µM, first compound 0.000316 µM) of the same molecule?
**A.** 99%

**Q.** What about the viability, T/C (second compound 0.0316 µM, first compound 0.001 µM) of the same molecule?
**A.** 106%

**Q.** What about the viability, T/C (second compound 0.0316 µM, first compound 0.00316 µM) of the same molecule?
**A.** 72.5%

**Q.** And the viability, T/C (second compound 0.0316 µM, first compound 0.01 µM)?
**A.** 86.4%

**Q.** What about the viability, T/C (second compound 0.0316 µM, first compound 0.0316 µM) of the same molecule?
**A.** 76.8%

**Q.** And the viability, T/C (second compound 0.0316 µM, first compound 0.1 µM)?
**A.** 51%

**Q.** And the viability, T/C (second compound 0.1 µM, first compound 0.000316 µM)?
**A.** 108%

**Q.** And the viability, T/C (second compound 0.1 µM, first compound 0.001 µM)?
**A.** 101%

**Q.** What about the viability, T/C (second compound 0.1 µM, first compound 0.00316 µM) of the same molecule?
**A.** 72.6%

**Q.** And the viability, T/C (second compound 0.1 µM, first compound 0.01 µM)?
**A.** 66.1%

**Q.** And the viability, T/C (second compound 0.1 µM, first compound 0.0316 µM)?
**A.** 74.9%

**Q.** What about the viability, T/C (second compound 0.1 µM, first compound 0.1 µM) of the same molecule?
**A.** 67%

**Q.** And the viability, T/C (second compound 0.316 µM, first compound 0.000316 µM)?
**A.** 82.4%

**Q.** And the viability, T/C (second compound 0.316 µM, first compound 0.001 µM)?
**A.** 82.6%

**Q.** What about the viability, T/C (second compound 0.316 µM, first compound 0.00316 µM) of the same molecule?
**A.** 85.1%

**Q.** And the viability, T/C (second compound 0.316 µM, first compound 0.01 µM)?
**A.** 70.8%

**Q.** And the viability, T/C (second compound 0.316 µM, first compound 0.0316 µM)?
**A.** 54.5%

**Q.** What about the viability, T/C (second compound 0.316 µM, first compound 0.1 µM) of the same molecule?
**A.** 65.4%

**Q.** What about the viability, T/C (second compound 1 µM, first compound 0.000316 µM) of the same molecule?
**A.** 84.6%

**Q.** What about the viability, T/C (second compound 1 µM, first compound 0.001 µM) of the same molecule?
**A.** 80.1%

**Q.** What about the viability, T/C (second compound 1 µM, first compound 0.00316 µM) of the same molecule?
**A.** 66.1%

**Q.** And the viability, T/C (second compound 1 µM, first compound 0.01 µM)?
**A.** 62%

**Q.** And the viability, T/C (second compound 1 µM, first compound 0.0316 µM)?
**A.** 62.5%

**Q.** What about the viability, T/C (second compound 1 µM, first compound 0.1 µM) of the same molecule?
**A.** 57.5%

**Q.** And the viability, T/C (second compound 3.16 µM, first compound 0.000316 µM)?
**A.** 81.1%

**Q.** And the viability, T/C (second compound 3.16 µM, first compound 0.001 µM)?
**A.** 71%

**Q.** What about the viability, T/C (second compound 3.16 µM, first compound 0.00316 µM) of the same molecule?
**A.** 60.1%

**Q.** And the viability, T/C (second compound 3.16 µM, first compound 0.01 µM)?
**A.** 58.4%

**Q.** And the viability, T/C (second compound 3.16 µM, first compound 0.0316 µM)?
**A.** 56.3%

**Q.** And the viability, T/C (second compound 3.16 µM, first compound 0.1 µM)?
**A.** 46.6%

**Q.** What about the viability, T/C (second compound 10 µM, first compound 0.000316 µM) of the same molecule?
**A.** 61.6%

**Q.** And the viability, T/C (second compound 10 µM, first compound 0.001 µM)?
**A.** 41.7%

**Q.** What about the viability, T/C (second compound 10 µM, first compound 0.00316 µM) of the same molecule?
**A.** 45%

**Q.** And the viability, T/C (second compound 10 µM, first compound 0.01 µM)?
**A.** 40.5%

**Q.** What about the viability, T/C (second compound 10 µM, first compound 0.0316 µM) of the same molecule?
**A.** 35.5%

**Q.** And the viability, T/C (second compound 10 µM, first compound 0.1 µM)?
**A.** 29.4%

Reference: PubChem BioAssay AID1963973 (Molecular Pharmacology Branch, DTP, NCI, 2024)
